# Test results taken from patent US9228097B2, “Phase change inks” (Xerox Corporation, priority 2013, dated 2016).
# Key:
# [1] = Solubility testing in polyethylene wax (POLYWAX 655); format: physicochemical; conditions: 1 g Solvent Black 3 or 2 g distearyl derivative in 50 g POLYWAX 655, 120° C. oil bath, stirred 3 h, then 1 h without stirring
# Protocol: [drawing 41] molecular weight 892, were compared for solubility in polyethylene wax, a predominant component in phase change inks. 1 g of the Solvent Black 3 and 2 g of the distearyl derivative (because its molecular weight was about twice that of Solvent Black 3) were each dissolved in 50 g portions of POLYWAX 655 (Baker Petrolite) in 100 mL beakers equipped with magnetic stir bars. The solutions were placed in 120° C. oil baths and allowed to stir for 3 h, followed by cessation of stirring for 1 h, after which the solutions were poured into aluminum tins.
# [2] = K-proofer print of the wax compositions on paper (darkness of the images as a sign of dissolved dye); format: physicochemical; conditions: polyethylene wax compositions of the solubility test applied to paper with RK Print-Coat K-proofer
Compound,solubility in polyethylene wax (solids on bottom of beaker) [1],darkness (optical density) of images versus composition containing Solvent Black 3 [2]
"CC1(C)Nc2cccc3c(/N=N/c4ccc(/N=N/c5ccccc5)c5ccccc45)ccc(c23)N1 [Solvent Black 3, reference compound]",a substantial amount of the Solvent Black 3 appeared on the bottom of its beaker,–
CCCCCCCCCCCCCCCCCC1(CCCCCCCCCCCCCCCCC)Nc2cccc3c(/N=N/c4ccc(/N=N/c5ccccc5)c5ccccc45)ccc(c23)N1 [distearyl derivative],almost no solids appeared on the bottom of the beaker,considerably darker
